Assay [1] has as its system non-obese diabetic mice (NOD/ShiLtJ) colonized with E. coli VT-55. Format: in vivo. The settings on record: NOD mice gavaged with E. coli VT-55; regimen of each agent as in Table 3; positive control (no therapy) 16, negative controls 24 and 26.
Procedure: For this study non-obese diabetic mice (NOD/ShiLtJ) 8 weeks old (Jackson Laboratory, Bar Harbor, Me., USA) were housed and bred under specific pathogen-free conditions. Mice were maintained in a temperature controlled (22±2° C.) animal facility with a 12 hour light/dark cycle and were allowed free access to food and acidified drinking water. To increase the efficacy of E. coli transfer, all animals were exposed to antibiotic treatment before the transfer of E. coli. Starting at three weeks of age, recipient mice were treated with ampicillin (1 g/L) in the drinking water for the next 4 weeks. The bacterial strains used: E. coli strain VT-55—a wild-type, amyloid-producing strain. E. coli VT-55 bacteria were administered with oropharyngeal gavage to 8 week old female mice at 10^8 CFU, 2 times a week. Acceleration of T1D development was accessed by measuring blood glucose in a manner consistent with diabetes monitoring, using a FreeStyle Lite meter and test strips (Abbott). Blood glucose was evaluated weekly via a tail vein. T1D development was defined as occurring after two consecutive blood glucose measurements of at least 250 mg/dL.
TTR was expressed in E. coli VT-243. The TTR protein was precipitated from the supernatant of a 48 hour culture of E. coli VT-243 after centrifugation (12,000×g, 20 minutes 4° C.) of the lysed cells in the gradient 40-90% ammonium sulfate fraction (1.8-3.6 M). The precipitate that contained TTR was dialyzed overnight against 10 mM sodium phosphate buffer, pH 7.5, 100 mM KCl, 1 mM EDTA. The same volume of 200 mM sodium acetate buffer (pH 4.4, 100 mM KCl, 1 mM EDTA) was added to achieve a final pH of 4.5, and the mixture was then incubated for 18 hours at 37° C. Following centrifugation (45 min, 30,000×g, 4° C.), the supernatant was gel filtrated (Superdex 75) to elute phosphate buffer.
To develop nanoparticles with siRNA, we used cholesterol, distearoyl-sn-glycerol-3-phosphocholine (DSPC) and PEG2000-DMG (all Sigma). Nanoparticles were prepared by dissolving the 306013 lipidoid, cholesterol, DSPC, and PEG2000-DMG with final molar ratio of 50:38.5:10:1.5 in a 90% ethanol enriched with 10% 10 nM sodium citrate. Particles were formed following vortexing of equal volumes of siRNA solution with the lipid solution and subsequent dilution in PBS. Mice were orally gavaged with nanoparticles loaded with siRNA at a dose of 5 mg/kg.
The EcVac vaccine consisted of conjugates containing the 0-antigens of serotypes 06 of E. coli VT-55. […] The suspension for iv administration was made in TBS, (pH 7.4; 25 mmol Tris, 137 mmol NaCl, 2.8 mmol KCl).
Balb/c mice were immunized (10 μg) intraperitoneally and boosted (1 μg) subcutaneously with the E. coli amyloid isolated as previously described. Splenocytes were removed under sterile conditions, washed and hybridized to murine plasmacytoma parent cell line SP2/OAg14 using 40% polyethylene glycol and a spleen cell to plasmacytoma cell ratio of 5:1. Cells were plated in 96-well microtiter (Sarstedt) plates at 100,000 cells/per well with DMEM supplemented with 10% fetal bovine serum. Following 48h, cells were supplemented with hypoxanthine (100 PM) containing medium. After three washes with PBS-1% BSA, the presence of specific antibody binding was detected by ELISA. Serotype specific wells were cloned. Pristine-primed BALB/c mice were IP injected with 1×10^7 hybridoma cells. Ascites fluid was collected 14 days later, centrifuged (5000 g, 20 min, Eppendorf) and stored at −80° C. before use.
In assay [2] the test system is MG1655 wild-type lysogenic strain (bacteriophage λ) biofilm. As to the kind of experiment: Prophage induction with mitomycin C in E. coli biofilm: PFU numbers (phage plaque assay). The settings on record: for PFU numbers: prophage induction with 1 μg/ml mitomycin C, 48h biofilm; for PFU: Table 17, prophage induction with mitomycin C, 48-h biofilm. The assay is classed as cell-based, Escherichia coli. As to the method:
(§1) We used 48h old E. coli biofilms formed by amyloid-producing E. coli VT-55. Bacteriophages λ (from our collection) were employed. E. coli lysogenic strains were obtained by infection of host bacteria with phage. Prophages were induced with 1 μg/ml mitomycin C (Sigma). To confirm lytic development of bacteriophage we measured an increase in the number of plaque forming units (PFU) and the reduction of bacterial colony-forming units CFU numbers, throughout the 4 h to 10 h period (Table 2). The PFU number in E. coli biofilm was determined by the production of plaques on control E. coli culture.
(§2) Next, the E. coli phage/E. coli bacterial cell ratio, which represents the “lytic potential” (FIG. 6) (Waller et al., 2014), was analyzed. E. coli strain MG1655 was used as a host for prophage induction experiments (Jensen 1993). Bacteria were subcultured from freezer stocks onto Mueller-Hinton agar plates (Oxoid) and incubated at 37° C. overnight. All subsequent liquid subcultures were derived from colonies isolated from these plates and were grown in Mueller-Hinton broth (Oxoid). Bacteriophage λ from the inventors' collection was employed. Bacteriophage suspensions were routinely stored in TM buffer (10 mM Tris-HCl, 10 mM MgSO4, pH 7.2) at 4° C. E. coli lysogenic strains were obtained by infection of E. coli MG1655 with the phage and titration of cells on Mueller-Hinton agar plates as previously described (Maniatis et al. 1989). For prophage induction, Mitomycin C (Sigma-Aldrich) was prepared in 0.1 M phosphate buffer (pH 7.2), filtered through a 0.22-μm-pore filter (Millipore Corp., Bedford, Mass.), and stored at 4° C. (Georgopoulos et al., 2002). A modified protocol according to Reyrolle et al. designed for prophage induction on 96-well plates was used (Reyrolle et al., 1982; McDonald et al., 2010). Twenty microliters of an overnight E. coli MG1655 culture, with an absorbance at 600 nm of 0.2, was dispensed in each well of a 96-well flat-bottom polystyrene tissue culture microtiter plate (Sarstedt, Numbrecht, Germany), after which 180 μl of MHB (Oxoid) was added. The plates were incubated at 37° C. for 48 h. Induction of prophages in the E. coli biofilms was provoked by the addition of mitomycin C (Sigma) to a final concentration 1 μg/ml to each well. The plates were further incubated at 37° C. and samples were taken at 4, 6, 8, and 10 h following prophage induction.
(§3) The inventors evaluated how the die-off of E. coli populations due to prophage induction could lead to amyloid release. The inventors used 48-h old E. coli biofilms with confirmed curli expression. Curli formation on 48-h colonies was visible with the naked eye on petri dishes (data not shown). Prophages were induced with mitomycin C. Lytic bacteriophage development was confirmed as an increase in plaque forming units (PFU) and a reduction in colony-forming units (CFU).
(§4) CFU and PFU were determined as follows. To estimate CFU, biofilms were thoroughly scraped (Tetz et al., 2009). Well contents were aspirated, placed in 1 ml of isotonic phosphate buffer (0.15 M, pH 7.2), and the total CFU number was determined by serial dilution and plating on Mueller-Hinton agar. The number of phage virions produced after induction was estimated by phage titration (using strain MG1655 as a host) and phage plaque assay. Following induction, at the indicated times 200-μl samples of biofilms were collected. Then, 30 μl of chloroform was added to each sample, the mixture was vortexed and centrifuged at 3000×g for 5 min in a microcentrifuge (Eppendorf 5415D). A supernatant fraction of the bacterial lysate was further used. The phage titer (number of phages per ml) was determined using the double agar overlay assay method as described previously (Yuan et al., 2012). To this end, 2.5 μl of each titration point of phage lysate was spotted on Mueller-Hinton agar (Oxoid). […]

Assay [3] relates to MG1655 wild-type lysogenic strain biofilm. Briefly: Prophage induction with mitomycin C in E. coli biofilm: CFU numbers. Format: cell-based, Escherichia coli. Particulars: for CFU numbers: prophage induction with 1 μg/ml mitomycin C, 48h biofilm; for CFU: Table 17, prophage induction with mitomycin C, 48-h biofilm. Here is the method: as §1, §2, §3, §4
The next assay deals with E. coli biofilm. As to the kind of experiment: Release of bacterial amyloid from E. coli biofilm after prophage induction (Congo Red absorbance of supernatant). Format: cell-based, Escherichia coli. The settings on record: for Congo Red absorbance of biofilm supernatant (release of bacterial amyloid): 10h following prophage induction. As to the method: Next, the effect of prophage induction on E. coli biofilm to amyloid release was evaluated. The amount of amyloid fibers in the biofilm supernatant was determined following prophage induction. Biofilm supernatant was collected and centrifuged at 5000 rpm (Eppendorf 5113) to sediment cells. Supernatant was filtered with […] and heated to eliminate contaminating proteins by incubating in a boiling water bath for 10 minutes, under the assumption that the aggregated β-sheet amyloid is heat resistant. To quantify the amount of aggregated amyloid, its binding to the amyloid diagnostic dye Congo Red (CR) was evaluated (Table 12). CR added to a final concentration of 10 μg/mL at pH 4.5 was tested using a BioRad UV/Vis spectrophotometer at 25° C. After 5 minutes of equilibration, the absorbance spectra were recorded from 400 to 600 nm. Each trace represents the average of 3 accumulated spectra.
Next, the inventors evaluated the effect of prophage induction on the amount of amyloid fibers released into the biofilm supernatant. Supernatant CR depletion assays were performed as follows. The amount of bacterial amyloid following prophage induction was measured in the supernatant of E. coli MG1655 biofilms. Biofilms were obtained as described above. Biofilm supernatant was taken at 4, 6, 8, and 10 h following prophage induction. To isolate aggregated amyloid fibers from the supernatant, the supernatant was centrifuged at 10,000×g, filtered through a 0.22 μm filter to separate bacterial cells, and treated with proteinase K to eliminate contaminating proteins. CR (Sigma-Aldrich) was added to a final concentration of 10 μg/ml from a filtered stock solution of 1 mg/ml (Reichhardt et al., 2015). After 5 min of equilibration, absorbance spectra were recorded from 400 to 600 nm (SmartSpec 3000, Bio-Rad). Each trace represents the average of 5 accumulated spectra. For all samples, spectra of corresponding nutrient MHB solutions with CR were used as blanks.
To quantify the amount of aggregated amyloid, its binding to the amyloid-diagnostic dye was evaluated by a Congo red (CR) assay (Reichhardt et al., 2015). A significant increase in CR absorbance was observed upon binding to supernatant 8 h following prophage induction as compared with control samples (FIG. 7). Like for other curli fibers, […] of the E. coli supernatant induced a spectral shift of the CR solution, with a maximum difference in absorbance between CR alone and CR bound to amyloid fibers at ˜541 nm (Chapman et al., 2002).

Setting [4] is: 48-h old E. coli biofilms, mitomycin C 1 μg/ml.

No end group written: not given here.

As for `O=C(O)C1CSC2=C(C3CC3)C(Cc3cccc4ccccc34)CC(=O)N21` (stereo not drawn) [8-cyclopropyl-7-(1-naphthylmethyl)-5-oxo-2,3,6,7-tetrahydro-5H-[1,3]thiazolo[3,2-a]pyridine-3-carboxylic acid], the “Median T1D incidence 50% (weeks)” value in assay [1] is 21 weeks.

For `C[C@H]1c2cccc(O)c2C(=O)C2=C(O)[C@]3(O)C(=O)C(C(N)=O)=C(O)[C@@H](N(C)C)[C@@H]3[C@@H](O)[C@@H]21` [Doxycycline, reference compound], in assay [1], the “Median T1D incidence 50% (weeks)” value amounted to 25 weeks.

As for `CO[C@@]12[C@H](COC(N)=O)C3=C(C(=O)C(C)=C(N)C3=O)N1C[C@@H]1N[C@@H]12` [Mytomicin C], the PFU numbers in assay [2] (4 h) is on record as 2.3log10 +/− log10 PFU/ml; in assay [2] (6 h), 9.3log10 +/− log10 PFU/ml; in assay [2] (8 h) it was 10.4log10 +/− log10 PFU/ml; in assay [2] (10 h), 11.2log10 +/− log10 PFU/ml. Also, the CFU numbers in assay [3] (4 h) was found to be 8.8log10 +/− log10 CFU/ml; in assay [3] (6 h) it was 8.2log10 +/− log10 CFU/ml; in assay [3] (8 h), 7.6log10 +/− log10 CFU/ml; in assay [3] (10 h) it was 7.4log10 +/− log10 CFU/ml. For the same compound, the “Congo Red absorbance of biofilm supernatant (release of bacterial amyloid)” value in the assay with E. coli biofilm (wavelength 400 nm) was determined as 0; in the assay with E. coli biofilm (wavelength 450 nm) it was 0.156; in the assay with E. coli biofilm (wavelength 500 nm), 0.338; in the assay with E. coli biofilm (wavelength 541 nm) it was 0.421; with E. coli biofilm (wavelength 550 nm) it was 0.345; in the assay with E. coli biofilm (wavelength 600 nm), 0.015.

As to `CO[C@@]12[C@H](COC(N)=O)C3=C(C(=O)C(C)=C(N)C3=O)N1C[C@@H]1N[C@@H]12` [mitomycin C, reference compound], the “Plaque forming units (PFU) after prophage induction (in words)” value in assay [2] (setting [4]) is listed as “increase”. Besides, in assay [3] (setting [4]), the “Colony-forming units (CFU) after prophage induction (in words)” value is listed as “reduction”. Also, in the assay with E. coli biofilm (in vitro, mitomycin C 1 μg/ml, 48 h biofilms), the “Amyloid release from preformed E. coli biofilms after prophage activation (in words)” value was “pronounced amyloid release”.

For the compound `CO[C@@]12[C@H](COC(N)=O)C3=C(C(=O)C(C)=C(N)C3=O)N1C[C@@H]1N[C@@H]12` [mytomicin C], the PFU in assay [2] (4 h) came out at 2.3 log10 PFU/ml; in assay [2] (6 h) it was 9.3 log10 PFU/ml; in assay [2] (8 h) it was 10.4 log10 PFU/ml; in assay [2] (10 h), 11.2 log10 PFU/ml. The CFU in assay [3] (4 h) is given as 8.8 log10 CFU/ml; in assay [3] (6 h), 8.2 log10 CFU/ml; in assay [3] (8 h), 7.6 log10 CFU/ml; in assay [3] (10 h), 7.4 log10 CFU/ml.

As for `CCCCCCCO[C@H]1O[C@H](CO)[C@@H](O)[C@H](O)[C@@H]1O` [n-Heptyl α-D-mannose, reference compound], in assay [1], the “Median T1D incidence 50% (weeks)” value amounted to 22 weeks.

For the compound “GGVLVQPG [Larazotide, Glycylglycyl-L-valyl-L-leucyl-L-valyl-L-glutaminyl-L-prolyl-glycine, reference compound]”, the “Median T1D incidence 50% (weeks)” value in assay [1] worked out at 24 weeks.

Turning to “Transthyretin: mouse Transthyretin expressed in E. coli VT-243”, the “Median T1D incidence 50% (weeks)” value in assay [1] came out at 24 weeks.

The record behind these values is patent publication US11918610B2, “Methods for diagnosis and treatment of type 1 diabetes” (priority 2018, dated 2024).
